Patent US10836727B2, “Crystal forms of lenvatinib” (Indena S.P.A., priority 2016, dated 2020)

What was measured:
[1] = DVS analysis (percentage change in mass as function of relative humidity change); format: physicochemical; details: for sorption and desorption of water (reversibility): methanesulfonate
Description: DVS analysis, shown in FIG. 11, reports the percentage change in mass as of the relative humidity change.
The DVS analysis, shown in FIG. 22, reports the percentage change in mass as function of the relative humidity change.

[2] = XRPD of the sample recovered at the end of DVS analysis; format: physicochemical; details: methanesulfonate
Method: The X-ray powder diffractogram (XRPD) has been obtained using the instrument X′Pert PRO PANalytical with single scan, using Kα1 radiation. The diffractogram is measured in reflection mode in the range 3-40° 2θ.

Structure (SMILES) | weight loss of the sample between the start and the end of analysis ([1]; DVS analysis, compatible with the loss of 1 mol of DMSO) [%] | sorption and desorption of water (reversibility) ([1]; DVS analysis) | mass increased percentage ([1]; DVS, between 40% and 80% RH of the absorption cycle) [%] | hygroscopicity classification ([1]; from DVS mass increase between 40% and 80% RH) | diffractogram / crystal structure after DVS [2]
COc1cc2nccc(Oc3ccc(NC(=O)NC4CC4)c(Cl)c3)c2cc1C(N)=O [DMSO-2, 4-[3-Chloro-4-(N′-cyclopropylureido)phenoxy]-7-methoxyquinoline-6-carboxamide methanesulfonate] | 12.34 | not reversible |  |  | 
COc1cc2nccc(Oc3ccc(NC(=O)NC4CC4)c(Cl)c3)c2cc1C(N)=O [H2O-1, 4-[3-Chloro-4-(N′-cyclopropylureido)phenoxy]-7-methoxyquinoline-6-carboxamide methanesulfonate] |  | reversible | 10.9 | hygroscopic | did not show any important modification
COc1cc2nccc(Oc3ccc(NC(=O)NC4CC4)c(Cl)c3)c2cc1C(N)=O [ACA-1 HT DRY, 4-[3-Chloro-4-(N′-cyclopropylureido)phenoxy]-7-methoxyquinoline-6-carboxamide methanesulfonate] |  | not very reversible |  |  | quite amorphous but its crystal structure did not change
